Laboratory results: ChEMBL document CHEMBL1201862, “PubChem BioAssay data set” (2004)
Active and inactive are the calls of the source.

Legend:
X-box-binding protein 1 = X-box-binding protein 1 (Homo sapiens, UniProt P17861); assay type: functional, Cricetulus griseus;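 also: confirmatory dose-response counter-screen serving a CHOP assay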
[1] = target: Peroxisome proliferator-activated receptor gamma/Nuclear receptor coactivator 3 (Homo sapiens, UniProt P37231); assay type: functional;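 also: agonist potency for raising coactivator recruitment to the receptor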
Chain of Peroxisome proliferator-activated receptor gamma/Nuclear receptor coactivator 3 (P37231 whole entry): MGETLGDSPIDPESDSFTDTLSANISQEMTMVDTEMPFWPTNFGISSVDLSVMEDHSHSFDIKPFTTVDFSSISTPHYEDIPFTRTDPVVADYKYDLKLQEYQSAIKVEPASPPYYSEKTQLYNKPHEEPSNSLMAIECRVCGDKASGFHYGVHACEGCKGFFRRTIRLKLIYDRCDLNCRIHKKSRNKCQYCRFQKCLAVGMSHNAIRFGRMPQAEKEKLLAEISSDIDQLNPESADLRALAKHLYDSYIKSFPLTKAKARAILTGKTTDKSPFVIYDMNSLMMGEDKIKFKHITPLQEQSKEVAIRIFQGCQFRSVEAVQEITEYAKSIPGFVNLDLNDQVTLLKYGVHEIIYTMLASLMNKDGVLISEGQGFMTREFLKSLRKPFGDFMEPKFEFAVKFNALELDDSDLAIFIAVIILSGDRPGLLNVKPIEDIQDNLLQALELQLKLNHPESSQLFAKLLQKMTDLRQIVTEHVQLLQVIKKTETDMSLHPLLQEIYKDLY
Chain of Peroxisome proliferator-activated receptor gamma/Nuclear receptor coactivator 3 (Q9Y6Q9 whole entry, further chain): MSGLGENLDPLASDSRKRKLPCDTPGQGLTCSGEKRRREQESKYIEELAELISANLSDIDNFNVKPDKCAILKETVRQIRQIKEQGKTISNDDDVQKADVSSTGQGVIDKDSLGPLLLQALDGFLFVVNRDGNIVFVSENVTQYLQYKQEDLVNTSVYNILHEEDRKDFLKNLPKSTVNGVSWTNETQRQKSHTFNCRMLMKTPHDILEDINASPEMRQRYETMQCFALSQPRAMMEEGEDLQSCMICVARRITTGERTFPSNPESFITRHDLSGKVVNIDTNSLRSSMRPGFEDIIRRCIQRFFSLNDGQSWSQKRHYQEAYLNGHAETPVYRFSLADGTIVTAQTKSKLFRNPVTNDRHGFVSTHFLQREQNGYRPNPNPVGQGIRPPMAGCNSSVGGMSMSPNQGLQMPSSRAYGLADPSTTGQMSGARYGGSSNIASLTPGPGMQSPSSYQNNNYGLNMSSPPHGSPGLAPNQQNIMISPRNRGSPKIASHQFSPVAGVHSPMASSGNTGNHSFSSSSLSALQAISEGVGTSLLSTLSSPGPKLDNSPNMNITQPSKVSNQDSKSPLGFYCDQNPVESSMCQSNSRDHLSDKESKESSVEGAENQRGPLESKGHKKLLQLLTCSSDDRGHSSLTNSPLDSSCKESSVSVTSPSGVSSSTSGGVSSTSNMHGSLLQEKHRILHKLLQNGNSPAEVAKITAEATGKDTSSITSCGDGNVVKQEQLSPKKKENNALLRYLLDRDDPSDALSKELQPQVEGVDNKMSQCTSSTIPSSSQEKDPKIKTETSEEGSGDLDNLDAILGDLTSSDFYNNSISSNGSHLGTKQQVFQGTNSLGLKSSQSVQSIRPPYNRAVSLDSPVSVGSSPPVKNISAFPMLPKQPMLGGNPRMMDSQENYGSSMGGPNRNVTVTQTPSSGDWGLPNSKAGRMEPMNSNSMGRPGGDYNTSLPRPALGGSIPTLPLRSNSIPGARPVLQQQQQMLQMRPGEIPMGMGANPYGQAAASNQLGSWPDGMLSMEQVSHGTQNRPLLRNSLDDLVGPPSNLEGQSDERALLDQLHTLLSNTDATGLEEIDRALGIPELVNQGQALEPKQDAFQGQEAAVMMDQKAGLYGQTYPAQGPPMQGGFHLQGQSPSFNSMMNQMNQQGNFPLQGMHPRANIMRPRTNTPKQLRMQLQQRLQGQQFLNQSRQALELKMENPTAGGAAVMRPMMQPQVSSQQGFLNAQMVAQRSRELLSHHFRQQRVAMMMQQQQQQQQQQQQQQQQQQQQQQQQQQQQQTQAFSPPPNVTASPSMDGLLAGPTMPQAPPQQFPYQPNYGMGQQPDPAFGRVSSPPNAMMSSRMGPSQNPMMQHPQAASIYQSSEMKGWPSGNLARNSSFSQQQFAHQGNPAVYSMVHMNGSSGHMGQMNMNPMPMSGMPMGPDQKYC

[2] = target: Peroxisome proliferator-activated receptor gamma/Nuclear receptor coactivator 1 (Homo sapiens, UniProt P37231); assay type: functional;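 also: agonist potency as compounds enhance coactivator SRC-1 recruitment to PPARgamma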
[3] = target: Peroxisome proliferator-activated receptor gamma/Nuclear receptor coactivator 2 (Homo sapiens, UniProt P37231); assay type: functional;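 also: agonist potency for raising coactivator recruitment to the receptor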
J774.A1 = assay: Confirmation of image-based Screening Assay for Inhibitors of Phagocytosis. [Related pubchem assays (depositor defined):AID1029, AID1643]; assay type: functional, cell-based; conditions: Mus musculus
[4] = luciferase reporter signal suppression in cells – H4 neuroglioma cells, luminescence, dose response (AID 1990); assay type: functional, cell-based
[5] = alpha-synuclein stem-loop luciferase translation blockers – H4 neuroglioma cells, luminescence, confirmation (AID 1988); assay type: functional, cell-based
[6] = DRD fibroblast viability loss – cell-based, non-viral oncogenic, luminescence, dose response (AID 1934); assay type: functional; conditions: Homo sapiens
[7] = HGIII-sPLA2 enzyme inhibition potency – biochemical, QFRET, IC50, dose response (AID 743457);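 also: green fluorescence rise as the enzyme cleaves BODIPY PC-A2 in liposomes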
BJ [8] = assay: BJ-TERT-LT-ST fibroblast viability loss – cell-based, RAS-independent, luminescence, dose response (AID 1935); assay type: functional; conditions: Homo sapiens;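 also: BJ fibroblasts immortalized with TERT plus LT and ST oncogenes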
[9] = Luminescence Cell-Based Dose Response HTS to Identify Inhibitors of 5'UTR Stem-Loop Driven Prion Protein mRNA Translation in H4 Neuroglioblastoma Cells. [Related pubchem assays: 1827 (Project Summary), 1813 (Primary HTS)]; assay type: functional
[10] = target: T1, Heat shock factor protein 1 (Mus musculus, UniProt P38532); assay: decrease of HSF1-responsive luciferase luminescence – cell-based, NIH3T3, dose retest, confirmation (AID 2382); assay type: functional;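 also: NIH3T3 fibroblasts with HSF1-driven luciferase reporter stressed by proteasome inhibitor MG132; luminescence from HSF1-driven luciferase expression after 8 hours of MG132 stress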
T1 sequence (P38532 whole entry): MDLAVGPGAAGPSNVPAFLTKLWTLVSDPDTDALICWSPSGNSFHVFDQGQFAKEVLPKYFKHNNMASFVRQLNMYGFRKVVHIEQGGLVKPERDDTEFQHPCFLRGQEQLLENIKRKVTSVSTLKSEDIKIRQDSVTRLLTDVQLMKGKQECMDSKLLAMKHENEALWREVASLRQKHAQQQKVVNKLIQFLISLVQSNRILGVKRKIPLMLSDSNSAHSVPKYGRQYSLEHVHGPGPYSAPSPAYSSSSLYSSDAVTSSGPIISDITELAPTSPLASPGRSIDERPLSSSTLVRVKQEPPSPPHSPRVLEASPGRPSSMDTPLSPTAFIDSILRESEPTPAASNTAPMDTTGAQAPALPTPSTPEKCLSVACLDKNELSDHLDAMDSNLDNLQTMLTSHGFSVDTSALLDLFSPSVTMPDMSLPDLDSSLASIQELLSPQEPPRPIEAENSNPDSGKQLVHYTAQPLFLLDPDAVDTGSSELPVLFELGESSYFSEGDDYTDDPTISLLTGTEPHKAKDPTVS

BJ [11] = assay: cells; assay type: functional, cell-based; conditions: Homo sapiens
BJ [12] = assay: BJ-TERT fibroblast viability loss – cell-based, RAS-independent, luminescence, dose response (AID 1933); assay type: functional; conditions: Homo sapiens
Vero = assay: viability of Vero cells under compound – cytotoxicity control for flavivirus capping enzyme inhibitors (AID 588742); assay type: functional; conditions: Chlorocebus sabaeus
NS3 = NS3 (Hepatitis C virus, UniProt A3EZJ3); assay: PubChem AID 2173; set-up: species or system Hepacivirus hominis
Chain of NS3 (A3EZJ3 whole entry, the tested form may be a part): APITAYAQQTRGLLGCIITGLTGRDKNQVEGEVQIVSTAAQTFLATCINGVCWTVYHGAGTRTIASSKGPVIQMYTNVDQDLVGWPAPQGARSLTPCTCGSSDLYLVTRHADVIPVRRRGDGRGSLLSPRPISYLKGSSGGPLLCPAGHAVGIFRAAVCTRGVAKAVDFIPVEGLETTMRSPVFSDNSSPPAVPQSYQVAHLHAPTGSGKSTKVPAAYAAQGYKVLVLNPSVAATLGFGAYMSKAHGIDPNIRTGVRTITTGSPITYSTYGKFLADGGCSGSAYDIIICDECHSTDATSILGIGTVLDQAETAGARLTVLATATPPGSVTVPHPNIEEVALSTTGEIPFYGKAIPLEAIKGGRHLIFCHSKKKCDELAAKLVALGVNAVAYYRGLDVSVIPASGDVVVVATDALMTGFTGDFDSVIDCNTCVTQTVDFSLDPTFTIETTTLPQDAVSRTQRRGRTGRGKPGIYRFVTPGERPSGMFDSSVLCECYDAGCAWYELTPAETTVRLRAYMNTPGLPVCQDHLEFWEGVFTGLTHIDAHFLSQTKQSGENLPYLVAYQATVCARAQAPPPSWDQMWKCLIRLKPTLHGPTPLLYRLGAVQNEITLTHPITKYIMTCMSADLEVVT

[13] = target: Disintegrin and metalloproteinase domain-containing protein 17 (Homo sapiens, UniProt P78536); assay: exosite inhibitors of ADAM17, dose response, biochemical (AID 743260)
Chain of Disintegrin and metalloproteinase domain-containing protein 17 (P78536 whole entry, the tested form may be a part): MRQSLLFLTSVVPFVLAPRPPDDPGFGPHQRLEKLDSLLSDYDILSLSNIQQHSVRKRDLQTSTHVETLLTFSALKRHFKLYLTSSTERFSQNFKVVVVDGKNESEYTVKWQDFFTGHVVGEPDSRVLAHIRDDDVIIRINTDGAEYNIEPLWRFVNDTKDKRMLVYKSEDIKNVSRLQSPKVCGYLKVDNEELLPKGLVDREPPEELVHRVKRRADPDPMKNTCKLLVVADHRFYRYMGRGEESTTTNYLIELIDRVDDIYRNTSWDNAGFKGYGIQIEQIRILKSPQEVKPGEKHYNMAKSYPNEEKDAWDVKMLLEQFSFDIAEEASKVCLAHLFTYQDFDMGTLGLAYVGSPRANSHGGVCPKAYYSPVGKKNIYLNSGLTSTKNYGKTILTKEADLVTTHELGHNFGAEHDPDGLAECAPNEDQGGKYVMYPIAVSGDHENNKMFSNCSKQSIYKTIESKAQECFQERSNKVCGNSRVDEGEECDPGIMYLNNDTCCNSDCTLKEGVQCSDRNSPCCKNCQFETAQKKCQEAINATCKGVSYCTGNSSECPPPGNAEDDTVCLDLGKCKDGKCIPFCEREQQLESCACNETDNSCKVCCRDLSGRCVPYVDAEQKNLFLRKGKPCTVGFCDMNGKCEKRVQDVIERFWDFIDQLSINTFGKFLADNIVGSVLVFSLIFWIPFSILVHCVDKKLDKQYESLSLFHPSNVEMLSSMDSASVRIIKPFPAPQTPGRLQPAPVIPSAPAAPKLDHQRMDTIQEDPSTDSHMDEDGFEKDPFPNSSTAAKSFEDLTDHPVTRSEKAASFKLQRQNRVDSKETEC

H9c2 = assay: cells; assay type: functional, cell-based; conditions: Rattus norvegicus, H9c2, Myocardium
[14] = inhibition of ADAM10 peptide cleavage – biochemical, FRET peptide substrate, recombinant human ADAM10, selectivity assay for ADAM17 exosite inhibitor project, dose response (AID 743259);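 also: ADAM10 enzyme cleaving a FRET peptide substrate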
SUMO-activating enzyme [15] = target: T2, SUMO-activating enzyme (Homo sapiens, UniProt Q9UBT2); assay: blockers of UBC9-mediated SUMO conjugation – biochemical, AlphaScreen, SUMOylation inhibitor project, confirmation (AID 2018); assay type: functional
T2 sequence (Q9UBE0 whole entry): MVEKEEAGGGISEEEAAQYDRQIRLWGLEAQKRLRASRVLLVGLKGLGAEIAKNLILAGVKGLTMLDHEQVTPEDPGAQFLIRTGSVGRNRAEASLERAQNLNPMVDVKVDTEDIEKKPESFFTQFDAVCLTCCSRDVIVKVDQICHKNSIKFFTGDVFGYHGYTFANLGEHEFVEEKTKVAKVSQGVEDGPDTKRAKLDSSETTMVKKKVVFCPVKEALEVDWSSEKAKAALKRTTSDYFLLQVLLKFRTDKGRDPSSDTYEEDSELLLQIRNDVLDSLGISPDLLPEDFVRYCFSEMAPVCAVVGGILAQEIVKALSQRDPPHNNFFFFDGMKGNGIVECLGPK
T2 sequence (Q9UBT2 whole entry): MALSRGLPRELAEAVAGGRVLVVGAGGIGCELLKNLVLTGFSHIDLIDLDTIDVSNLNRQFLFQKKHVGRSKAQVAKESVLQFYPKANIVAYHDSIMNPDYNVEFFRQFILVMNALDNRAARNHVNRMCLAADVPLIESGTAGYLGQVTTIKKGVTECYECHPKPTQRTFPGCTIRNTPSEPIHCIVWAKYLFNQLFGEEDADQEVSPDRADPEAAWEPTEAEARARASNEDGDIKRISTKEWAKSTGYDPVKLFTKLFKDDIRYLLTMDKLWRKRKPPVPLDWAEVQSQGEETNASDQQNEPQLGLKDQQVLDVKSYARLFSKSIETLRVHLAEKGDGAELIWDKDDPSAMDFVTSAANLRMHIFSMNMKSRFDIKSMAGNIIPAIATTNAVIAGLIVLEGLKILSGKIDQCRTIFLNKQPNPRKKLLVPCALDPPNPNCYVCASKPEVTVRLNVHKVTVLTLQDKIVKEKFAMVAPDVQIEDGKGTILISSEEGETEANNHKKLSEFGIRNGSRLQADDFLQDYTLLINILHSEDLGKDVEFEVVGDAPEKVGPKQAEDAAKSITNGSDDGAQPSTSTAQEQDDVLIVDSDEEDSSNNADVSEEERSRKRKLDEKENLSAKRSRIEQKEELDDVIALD

SUMO-activating enzyme [16] = target: T2, SUMO-activating enzyme; assay: blockers of SAE1/SAE2–UBC9 SUMO transfer – biochemical, HTRF, uHTS, primary screen (AID 2006); assay type: protein-complex assay
[17] = target: T3, Histone-lysine N-methyltransferase NSD2 (Homo sapiens, UniProt O96028); assay type: biochemical
T3 sequence (O96028 whole entry): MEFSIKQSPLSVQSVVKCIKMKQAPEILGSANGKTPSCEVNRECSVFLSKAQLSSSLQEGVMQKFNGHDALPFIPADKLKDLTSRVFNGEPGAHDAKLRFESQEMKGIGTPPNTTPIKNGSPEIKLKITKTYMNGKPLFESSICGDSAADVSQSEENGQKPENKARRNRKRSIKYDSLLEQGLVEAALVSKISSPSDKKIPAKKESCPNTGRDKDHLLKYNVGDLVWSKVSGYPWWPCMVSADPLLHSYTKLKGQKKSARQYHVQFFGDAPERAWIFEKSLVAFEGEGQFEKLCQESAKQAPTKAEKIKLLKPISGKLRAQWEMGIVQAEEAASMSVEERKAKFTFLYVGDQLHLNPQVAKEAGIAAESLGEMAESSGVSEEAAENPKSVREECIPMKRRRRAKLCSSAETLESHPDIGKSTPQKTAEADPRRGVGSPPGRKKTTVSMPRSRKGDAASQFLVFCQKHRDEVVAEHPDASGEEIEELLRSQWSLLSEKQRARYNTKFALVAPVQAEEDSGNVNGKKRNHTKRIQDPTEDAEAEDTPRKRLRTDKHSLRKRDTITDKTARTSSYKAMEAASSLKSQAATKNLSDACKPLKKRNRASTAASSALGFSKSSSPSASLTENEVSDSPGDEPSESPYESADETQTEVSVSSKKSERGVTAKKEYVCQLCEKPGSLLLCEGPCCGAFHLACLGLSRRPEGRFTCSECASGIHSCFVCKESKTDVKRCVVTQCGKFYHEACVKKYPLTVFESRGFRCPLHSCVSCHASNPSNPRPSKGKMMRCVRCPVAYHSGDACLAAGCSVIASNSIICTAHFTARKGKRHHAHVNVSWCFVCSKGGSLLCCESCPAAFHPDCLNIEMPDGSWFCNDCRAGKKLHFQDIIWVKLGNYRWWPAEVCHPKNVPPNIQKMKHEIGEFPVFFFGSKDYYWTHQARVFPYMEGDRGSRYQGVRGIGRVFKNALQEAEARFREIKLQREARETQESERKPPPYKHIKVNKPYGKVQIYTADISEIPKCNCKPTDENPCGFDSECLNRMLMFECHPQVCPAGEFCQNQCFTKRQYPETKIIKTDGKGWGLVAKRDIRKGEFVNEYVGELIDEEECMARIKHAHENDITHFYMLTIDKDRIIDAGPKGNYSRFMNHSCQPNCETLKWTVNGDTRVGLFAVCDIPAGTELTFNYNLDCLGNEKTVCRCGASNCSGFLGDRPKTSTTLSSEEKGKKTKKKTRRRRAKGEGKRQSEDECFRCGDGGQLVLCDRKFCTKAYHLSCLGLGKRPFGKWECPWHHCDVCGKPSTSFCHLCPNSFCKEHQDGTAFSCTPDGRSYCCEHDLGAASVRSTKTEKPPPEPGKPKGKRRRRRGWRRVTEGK

Chain of X-box-binding protein 1 (P17861 whole entry): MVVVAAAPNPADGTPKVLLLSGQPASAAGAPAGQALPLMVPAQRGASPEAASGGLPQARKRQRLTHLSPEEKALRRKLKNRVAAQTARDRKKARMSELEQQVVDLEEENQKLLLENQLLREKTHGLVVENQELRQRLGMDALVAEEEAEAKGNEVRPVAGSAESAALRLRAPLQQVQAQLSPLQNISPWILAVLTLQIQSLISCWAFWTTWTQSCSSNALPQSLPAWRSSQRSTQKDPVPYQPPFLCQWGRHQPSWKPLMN

## CCOc1ccc(N/C=C2/C(=O)NC(=O)N(C(C)(C)C)C2=O)cc1
X-box-binding protein 1
  Absolute IC50 (XBP1): 10 µM

## CCOC(=O)c1c(NC(=O)CSc2nc(C)cc(C)c2C#N)sc(C(C)=O)c1C
[1]
  EC50: > 79.4 µM (not active)
[2]
  EC50: > 79.4 µM (not active)
[3]
  EC50: > 79.4 µM (not active)

## CCOc1cc(CNc2ccc3c(c2)OCCO3)cc(Br)c1OCC
J774.A1
  IC50: 2.51 µM (active)
[4]
  EC50: 8.47 µM (inconclusive)
[5]
  EC50: 1.58 µM (active)
[6]
  EC50: 1.6 µM (active)
[7]
  IC50: > 122 µM (inactive)
BJ [8]
  EC50: 2.43 µM (inconclusive)
[9]
  EC50: > 120 µM (not active)
[10]
  EC50: 2.48 µM (active)
BJ [11]
  EC50: 15.6 µM (active)
BJ [12]
  EC50: 1.85 µM (active)

## CCOc1ccc(/C=C/C(=O)c2cc(Br)ccc(=O)c2O)cc1
Vero
  CC50: 7 µM (active)
NS3
  IC50: 4.35 µM (active)
[13]
  IC50: 11.4 µM (inactive)
H9c2
  IC50: 6.72 µM (active)
[14]
  IC50: 17.6 µM (inactive)

## COc1cc2c(C#N)c(N3CCCC3)nc(N)c2c(N)n1
SUMO-activating enzyme [15]
  IC50: 5.34 µM (active)
SUMO-activating enzyme [16]
  IC50: 3.79 µM (active)
[17]
  AC50: 9.62 µM (active)
